Test results: patent US4970206A, “Pyroglutamic acid esters used as dermal penetration enhancers for drugs” (Merck & Co., Inc., priority 1989, dated 1990)
Read-outs that look alike come from different tables or passages of the source.

Tests used:
Aqueous solubility = assay type: physicochemical; details: water, at 32°
[1] = assay type: in vitro ADME, Elaphae obsolata (black rat snake); details: n = 5; for Flux of 2,3-dihydro-5-hydroxy-6-(o-hydroxymethylcinnamyl)benzofuran ± SD / % of 2,3-dihydro-5-hydroxy-6-(o-hydroxymethylcinnamyl)benzofuran delivered in 48 hrs ± SD: 1% (w/w) drug with 15% (w/w) enhancer; for Flux of 2,3-dihydro-5-hydroxy-6-(o-hydroxymethylcinnamyl)benzofuran ± SD: 32°
Protocol: The transport of 2,3-dihydro-5-hydroxy-6-(o-hydroxymethylcinnamyl)benzofuran, through shed snake skin, which has been reported to be a good model for human stratum corneaum in terms of thickness, compositional features, structure and permeability, was measured in the presence of decyl, dodecyl and oleyl esters of L-pyroglutamic acid used as penetration enhancers.
Because of the poor aqueous solubility of 2,3-dihydro 5-hydroxy-6-(o-hydroxymethylcinnamyl)benzofuran (<0.0002 mg/ml at 32°), 20% propyleneglycol in isotonic pH 7.2 phosphate buffer was used as the receptor medium. […] A weighed amount of a petrolatum ointment (30-35 mg) containing 1% (w/w) of 2,3-dihydro-5-hydroxy-6-(o-hydroxymethylcinnamyl)benzofuran with or without 15% (w/w) of the permeation enhancer was applied to 1.76 cm^2 area of shed skin of adult Elaphae obsolata (black rat snake), and held between the donor and receptor compartments of a diffusion cell by O-rings. […] The diffusion cells were maintained at 32°±1° C. The amount of drug diffused into the receptor chamber was measured by HPLC using acetonitrile-water (2:3) at a flow rate of 1 ml/min as mobile phase, a C18 column and a UV detector set at […]. The results (Table IV below) are averages of five diffusion cells for each experiment.

[2] = Permeation enhancement of enalapril, clonidine and acyclovir using pyroglutamic esters; assay type: in vitro ADME, Elaphae obsolete (black rat snake); details: for % delivered in 48 hrs ± SD: no enhancer; for Flux of acyclovir ± SD / % of acyclovir delivered in 48 hrs ± SD: acyclovir with enhancer; for Flux of clonidine ± SD / % of clonidine delivered in 48 hrs ± SD: clonidine with enhancer; for Flux of enalapril ± SD / % of enalapril delivered in 48 hrs ± SD: enalapril with enhancer
Protocol: (§1) In the examples given below, the permeation enhancement was determined using an in vitro diffusion cell procedure. The molts of adult Elaphae obsolete (black rat snake) was used as the model for stratum corneum membrane (R. Ibuki, Ph.D. Thesis, University of Kansas, 1985). The shed snake skin has great similarities to human skin in terms of thickness, composition of constituents and structure and has been proposed as the most suitable model for human stratum corneum for permeability studies.
Glass diffusion cells consisting of a donor and receptor cells separated by the shed snake skin membrane were assembled using circular O-ring joints held together by spring clamps. The exposed membrane surface area of the diffusion cell measured 1.8 cm^2. Before being mounted in the diffusion cell approximately 25 mg of an ointment containing the therapeutic agent and the penetration enhancer was carefully applied to the membrane and was spread over the desired area. The receptor side was filled with approximately 8.5 ml of buffer solution consisting of 1.5×10^-1 M NaCl, 5×10^-4 NaH2 PO4 and 2.0×10^-4 M Na2 HPO4 adjusted to pH 7.2 with NaOH. The diffusion cell was immersed vertically in a water bath maintained at 32°±1° C. The receptor cell was stirred constantly with a magnetic stirrer. To determine the amount of compound penetrated through the snake skin membrane from the upper chamber, 0.2 ml samples were withdrawn at varying intervals from the receptor chamber using a syringe. An equal amount of fresh buffer was replenished during sampling. The concentration of drug penetrated in each diffusion cell was measured using high pressure liquid chromatography. […]

[3] = tested on: skin (dorsal surface) of fuzzy rats; assay: Skin Irritation Study (modified Draize, 3-day occlusive dermal application); assay type: in vivo; design: key: modified Draize index, 0-8 (erythema 0-4 + edema 0-4); details: 3 DAY occlusion, 50 mg over 2 cm^2, maximum 8; for Primary Irritation Index (PII), T0-T72 hrs: irritation index ± SD (n)
Protocol: Fuzzy rats (Temple University) 150 to 200 g were used to study the dermal irritancy as the neat compounds. Test preparations (50 mg) were applied to circular gauze pads 1 mm thick and 16 mm in diameter, and affixed to the animals' dorsal surface with occlusive adhesive film (Adhesive Plaster for Patch Test, Kanebo, Ltd., Osaka, Japan). The occlusive dressings were removed after 3 or 7 days. Treated skin areas were then evaluated according to a modified Draize scoring method, and the irritation index was evaluated for each test site. The first or "primary irritation index" (PII) was an average value reflecting irritation both immediately after dressing removal, and 72 hours later. The "secondary irritation index" (SII) was determined 7 days after dressing removal. The maximum possible PII or SII was 8 with a total possible score of 4 erythema, and a total possible score of 4 for edema. A PII or SII less than or equal to 2 indicated a mild irritant, a PII or SII greater than 2 but less than or equal to 6 indicated a moderate irritant, and a PII greater than 6 indicated a severe irritant as shown in Table 1 below: […]

Rat plasma hydrolysis = assay type: in vitro ADME; details: 37° C., decanol generated, by GC, read-out: t 1/2 of enzymatic hydrolysis in rat plasma
Protocol: Freshly prepared rat plasma (2 ml) was mixed with decyl pyroglutamate (0.6 mg) and was maintained at 37° C. Aliquots were removed at different time intervals and vortexed with heptane (1 ml) containing dodecanol as an internal standard. The decanol produced by enzymatic hydrolysis was assayed by gas chromatography on a 6'×2 mm (id) column packed with OV-101 (methylsilicone) on gas chrom Q (100-120 mesh), programmed from 125° to 175° C.

[4] = In vitro diffusion cell permeation through shed snake skin (Example 4); assay type: in vitro ADME, Elaphae obsolete (black rat snake); details: 32°; for flux of indomethacin: pH 7.2
Protocol: as §1
Glass diffusion cells consisting of a donor and receptor cells separated by the shed snake skin membrane were assembled using circular O-ring joints held together by spring clamps. The exposed membrane surface area of the diffusion cell measured 1.8 cm^2. Before being mounted in the diffusion cell approximately 25 mg of an ointment containing the therapeutic agent and the penetration enhancer was carefully applied to the membrane and was spread over the desired area. The receptor side was filled with approximately 8.5 ml of buffer solution consisting of 1.5×10^-1 M NaCl, 5×10^-4 NaH2 PO4 and 2.0×10^-4 M Na2 HPO4 adjusted to pH 7.2 with NaOH. The diffusion cell was immersed vertically in a water bath maintained at 32°±1° C. The receptor cell was stirred constantly with a magnetic stirrer. To determine the amount of compound penetrated through the snake skin membrane from the upper chamber, 0.2 ml samples were withdrawn at varying intervals from the receptor chamber using a syringe. An equal amount of fresh buffer was replenished during sampling. The concentration of drug penetrated in each diffusion cell was measured using high pressure liquid chromatography. The results reported for each experiment are the average values from 5 replicate diffusion cells.
The ointments used for the experiments contained varying concentrations of the drug and penetration enhancing agent. The drug was dispersed in the enhancer and this was then mixed with white petrolatum USP using a vortex mixer around 55° C. The ointments were kept in a water bath at 32°±1° C. for 1 day before use in in vitro studies. See Tables II and III below for the results of penetration enhancement effects.

[5] = weight ratio of enhancer/indomethacin 15.0
[6] = dodecyl pyroglutamate as enhancer, weight ratio of enhancer/drug 15
[7] = dodecyl pyroglutamate, weight ratio of enhancer/drug 0 (no enhancer)

**Q.** For `OCc1ccccc1C=CCc1cc2c(cc1O)CCO2` [2,3-dihydro-5-hydroxy-6-(o-hydroxymethylcinnamyl)benzofuran, reference compound], which solubility (Aqueous solubility) is on record?
**A.** Its solubility is under 0.2 µg/mL.

**Q.** What about the “Flux ± SD” value ([1]; 1% (w/w) drug, no enhancer) of the same compound?
**A.** The value was 0.19 μg/cm^2 /hr.

**Q.** And the “% delivered in 48 hrs ± SD” value ([1]; 1% (w/w) drug, no enhancer, 48 hrs)?
**A.** Its value is 4.24 ± 0.53%.

**Q.** For `Nc1nc2c(ncn2COCCO)c(=O)[nH]1` [Acyclovir, reference compound], which “% delivered in 48 hrs ± SD” value ([2]; acyclovir) is on record?
**A.** Its value is “not detectable”.

**Q.** With `CCCCCCCCCCCCN1CCCCCC1=O` [Azone, reference compound] as the compound, how does the “Primary Irritation Index (PII), T0-T72 hrs” value (shortened to “Primary Irritation Index”) [3] read?
**A.** Its value is 4.0 ± 1.9.

**Q.** What about the “Secondary Irritation Index (SII) at 7 days” value (from here on “Secondary Irritation Index”) [3] of the same compound?
**A.** The value was 0.

**Q.** Which “% delivered in 48 hrs ± SD” value ([2]; clonidine, n = 12) does the source give for `Clc1cccc(Cl)c1N=C1NCCN1` [Clonidine, reference compound] here?
**A.** The value was 1.1 ± 0.3%.

**Q.** What does the source list for `CCCCCCCCCCOC(=O)[C@@H]1CCC(=O)N1` [Decyl pyroglutamate, Decyl Pyroglutamate]?
**A.** half-life (Rat plasma hydrolysis): 1.7 min; flux of indomethacin [4, 5]: 0.477 μg/cm^2 /hr; Flux of 2,3-dihydro-5-hydroxy-6-(o-hydroxymethylcinnamyl)benzofuran ± SD [1]: 0.70 ± 0.06 μg/cm^2 /hr; % of 2,3-dihydro-5-hydroxy-6-(o-hydroxymethylcinnamyl)benzofuran delivered in 48 hrs ± SD ([1]; 48 hrs): 16.1 ± 3.0%; Flux of acyclovir ± SD [2]: 0.063 ± 0.01 μg/cm^2 /hr; % of acyclovir delivered in 48 hrs ± SD [2]: 0.25 ± 0.03%; Flux of clonidine ± SD [2]: 0.31 ± 0.13 μg/cm^2 /hr; % of clonidine delivered in 48 hrs ± SD [2]: 8.1 ± 2.1%; Flux of enalapril ± SD [2]: 0.15 ± 0.01 μg/cm^2 /hr; % of enalapril delivered in 48 hrs ± SD [2]: 4.3 ± 0.9%; Primary Irritation Index (PII), T0-T72 hrs [3]: 0.9 ± 1.1; Secondary Irritation Index (SII) at 7 days [3]: 0

**Q.** Which flux of indomethacin [4, 5] does the source give for `CCCCCCCCCCCCOC(=O)[C@@H]1CCC(=O)N1` [Dodecyl pyroglutamate] here?
**A.** Its flux of indomethacin is 0.630 μg/cm^2 /hr.

**Q.** What about the “Flux of 2,3-dihydro-5-hydroxy-6-(o-hydroxymethylcinnamyl)benzofuran ± SD” value [1] of the same compound?
**A.** Its value is 0.61 ± 0.04 μg/cm^2 /hr.

**Q.** What about the “% of 2,3-dihydro-5-hydroxy-6-(o-hydroxymethylcinnamyl)benzofuran delivered in 48 hrs ± SD” value ([1]; 48 hrs) of the same compound?
**A.** The value was 13.4 ± 1.5%.

**Q.** What about the “Flux of acyclovir ± SD” value [2] of the same compound?
**A.** Its value is 0.072 ± 0.04 μg/cm^2 /hr.

**Q.** What about the “% of acyclovir delivered in 48 hrs ± SD” value [2] of the same compound?
**A.** The value was 0.26 ± 0.15%.

**Q.** And the “Flux of clonidine ± SD” value [2]?
**A.** The value was 0.63 ± 0.21 μg/cm^2 /hr.

**Q.** And the “% of clonidine delivered in 48 hrs ± SD” value [2]?
**A.** The value was 13.2 ± 0.6%.

**Q.** What about the “Flux of enalapril ± SD” value [2] of the same compound?
**A.** Its value is 0.51 ± 0.09 μg/cm^2 /hr.

**Q.** And the “% of enalapril delivered in 48 hrs ± SD” value [2]?
**A.** The value was 9.9 ± 2.7%.

**Q.** What about the “Primary Irritation Index” value [3] of the same compound?
**A.** Its value is 0.

**Q.** What about the “Secondary Irritation Index” value [3] of the same compound?
**A.** Its value is 0.

**Q.** With `CC(C)=CCCC(C)=CCCC(C)=CCOC(=O)[C@@H]1CCC(=O)N1` [Farnesyl pyroglutamate] as the compound, how does the flux of indomethacin [4, 5] read?
**A.** Its flux of indomethacin is 0.317 μg/cm^2 /hr.

**Q.** What about the “Primary Irritation Index” value [3] of the same compound?
**A.** Its value is 0.

**Q.** And the “Secondary Irritation Index” value [3]?
**A.** Its value is 0.

**Q.** Which results are given for `C[C@]12CCC(=O)C=C1CC[C@@H]1[C@@H]2[C@@H](O)C[C@@]2(C)[C@H]1CC[C@]2(O)C(=O)CO` [Hydrocortisone]?
**A.** flux of drug [4, 6]: 0.338 μg/cm^2 /hr; flux of drug [4, 7]: Not detectable

**Q.** With `COc1ccc2c(c1)c(CC(=O)O)c(C)n2C(=O)c1ccc(Cl)cc1` [Indomethacin, indomethacin] as the compound, how does the flux of indomethacin ([4]; no enhancer) read?
**A.** Its flux of indomethacin is “non-detectable”.

**Q.** What does the source list for `CCCCCCCC/C=C\CCCCCCCCOC(=O)[C@@H]1CCC(=O)N1` [Oleyl pyroglutamate]?
**A.** flux of indomethacin [4, 5]: 0.450 μg/cm^2 /hr; Flux of 2,3-dihydro-5-hydroxy-6-(o-hydroxymethylcinnamyl)benzofuran ± SD [1]: 0.95 ± 0.09 μg/cm^2 /hr; % of 2,3-dihydro-5-hydroxy-6-(o-hydroxymethylcinnamyl)benzofuran delivered in 48 hrs ± SD ([1]; 48 hrs): 21.7 ± 1.1%; Flux of clonidine ± SD [2]: 0.26 ± 0.15 μg/cm^2 /hr; % of clonidine delivered in 48 hrs ± SD [2]: 4.4 ± 1.4%; Flux of enalapril ± SD [2]: 0.92 ± 0.22 μg/cm^2 /hr; % of enalapril delivered in 48 hrs ± SD [2]: 18.7 ± 5.4%; Primary Irritation Index (PII), T0-T72 hrs [3]: 0.1 ± 0.3; Secondary Irritation Index (SII) at 7 days [3]: 0

**Q.** Which flux of drug [4, 6] does the source give for `CC(C)NCC(O)COc1cccc2ccccc12` (centres unmarked) [Propranolol] here?
**A.** Its flux of drug is 7.410 μg/cm^2 /hr.

**Q.** And the flux of drug [4, 7]?
**A.** The flux of drug was 3.680 μg/cm^2 /hr.
